Reference: PubChem BioAssay AID1963963 (Molecular Pharmacology Branch, DTP, NCI, 2024)

System: 958667-338-R-J2-PDC tumor spheroids viability
Experiment: Anticancer human tumor 958667-338-R-J2-PDC patient-derived colon adenocarcinoma cell line growth inhibition [PI3K]
Conditions: spheroids with HUVEC and MSC; for IC50: curve of first compound; for viability, T/C: stronger effect = lower value; active = viability on the fitted dose curve at most 10% of control; inactive = the rest
Procedure, shortened: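 High-throughput combination screen: PI3K inhibitors crossed with targeted small molecules on complex spheroids of tumor cells, HUVEC and MSCs at 37 degrees C, 5% CO2. Top concentration was at or near clinical Cmax (otherwise 10 microM), with half-log decrements.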
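Also: spheroids exposed to compounds for seven days before readout.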

CC1(C)CCC(Nc2ncc(C(F)(F)F)c(-c3c[nH]c4c(P(C)(C)=O)c(C#N)ccc34)n2)CN1 (configuration not stated) + Cc1nc(NC(=O)N2CCCC2C(N)=O)sc1-c1ccnc(C(C)(C)C(F)(F)F)c1
4.09 µM: IC50 (second compound 0.316 µM)
inactive: viability, T/C (second compound 0.0316 µM, first compound 0.0316 µM) 108% | viability, T/C (second compound 0.0316 µM, first compound 0.1 µM) 136% | viability, T/C (second compound 0.0316 µM, first compound 0.316 µM) 84% | viability, T/C (second compound 0.0316 µM, first compound 1 µM) 72.4% | viability, T/C (second compound 0.0316 µM, first compound 3.16 µM) 71.4% | viability, T/C (second compound 0.0316 µM, first compound 10 µM) 39% | viability, T/C (second compound 0.1 µM, first compound 0.0316 µM) 140% | viability, T/C (second compound 0.1 µM, first compound 0.1 µM) 112% | viability, T/C (second compound 0.1 µM, first compound 0.316 µM) 83.5% | viability, T/C (second compound 0.1 µM, first compound 1 µM) 72.2% | viability, T/C (second compound 0.1 µM, first compound 3.16 µM) 55.9% | viability, T/C (second compound 0.1 µM, first compound 10 µM) 40.3% | viability, T/C (second compound 0.316 µM, first compound 0.0316 µM) 119% | viability, T/C (second compound 0.316 µM, first compound 0.1 µM) 79.5% | viability, T/C (second compound 0.316 µM, first compound 0.316 µM) 96.2% | viability, T/C (second compound 0.316 µM, first compound 1 µM) 59.4% | viability, T/C (second compound 0.316 µM, first compound 3.16 µM) 67.1% | viability, T/C (second compound 0.316 µM, first compound 10 µM) 30.9% | viability, T/C (second compound 1 µM, first compound 0.0316 µM) 103% | viability, T/C (second compound 1 µM, first compound 0.1 µM) 82% | viability, T/C (second compound 1 µM, first compound 0.316 µM) 86.5% | viability, T/C (second compound 1 µM, first compound 1 µM) 67.6% | viability, T/C (second compound 1 µM, first compound 3.16 µM) 55.2% | viability, T/C (second compound 1 µM, first compound 10 µM) 22.8% | viability, T/C (second compound 3.16 µM, first compound 0.0316 µM) 80.5% | viability, T/C (second compound 3.16 µM, first compound 0.1 µM) 83.9% | viability, T/C (second compound 3.16 µM, first compound 0.316 µM) 73.5% | viability, T/C (second compound 3.16 µM, first compound 1 µM) 55.3% | viability, T/C (second compound 3.16 µM, first compound 3.16 µM) 52.6% | viability, T/C (second compound 3.16 µM, first compound 10 µM) 25.2% | viability, T/C (second compound 10 µM, first compound 0.0316 µM) 77.5% | viability, T/C (second compound 10 µM, first compound 0.1 µM) 63.2% | viability, T/C (second compound 10 µM, first compound 0.316 µM) 45.5% | viability, T/C (second compound 10 µM, first compound 1 µM) 57.1% | viability, T/C (second compound 10 µM, first compound 3.16 µM) 44.3% | viability, T/C (second compound 10 µM, first compound 10 µM) 14.5%
3.33 µM: IC50 (second compound 1 µM)
2.58 µM: IC50 (second compound 3.16 µM)
4.53 µM: IC50 (second compound 0.1 µM)
6.39 µM: IC50 (second compound 0.0316 µM)
1.04 µM: IC50 (second compound 10 µM)
